Reference: patent publication US12662479B2 (Foghorn Therapeutics Inc., priority 2020, dated 2026)
Where a name gives a salt, the structure may show the parent alone.

Legend:
HiBit-BRM fusion protein = target: T1, HiBit-BRM fusion protein (Homo sapiens, UniProt P51531); assay: HiBiT-BRM cell-based degradation assay (Nano-Glo HiBiT Lytic Detection, 24 h); settings: HeLa cells expressing HiBiT-BRM; for DC50: read-out: BRM HiBit Degradation IC50; for BRM HiBit Degradation Maximum measured: top dose 30 μM
T1 construct: expressed in transfected cells
Outline: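 Percent BRM loss was derived from HiBiT luminescence relative to DMSO-treated cells and cells given 2 μM of a known BRM/BRG1 degrader. Treatment lasted 24 h in HiBiT-BRM HeLa cells, with a top final concentration of 30 μM.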

[1] = target: T2, HiBit-BRG1 fusion protein (Homo sapiens, UniProt P51532); assay: HiBiT-BRG1 cell-based degradation assay (Nano-Glo HiBiT Lytic Detection, 24 h); settings: HeLa cells expressing HiBit-BRG1 and LgBit; for DC50: read-out: BRG1 HiBit Degradation IC50; for Dmax: HeLa, top dose 30 μM, read-out: BRG1 HiBit Degradation Maximum measured
T2 construct: expressed in transfected cells
Outline: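 Degradation is scaled from DMSO-treated cells (0%) to cells given 2 μM of a known BRM/BRG1 degrader (100%). HeLa cells stably carrying HiBiT-BRG1 plus LgBiT (5000/well) were lysed with Nano-Glo HiBiT detection reagent, shaken 10 min at RT, and luminescence read.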

T1 sequence (P51531 whole entry, the tested form may be a part): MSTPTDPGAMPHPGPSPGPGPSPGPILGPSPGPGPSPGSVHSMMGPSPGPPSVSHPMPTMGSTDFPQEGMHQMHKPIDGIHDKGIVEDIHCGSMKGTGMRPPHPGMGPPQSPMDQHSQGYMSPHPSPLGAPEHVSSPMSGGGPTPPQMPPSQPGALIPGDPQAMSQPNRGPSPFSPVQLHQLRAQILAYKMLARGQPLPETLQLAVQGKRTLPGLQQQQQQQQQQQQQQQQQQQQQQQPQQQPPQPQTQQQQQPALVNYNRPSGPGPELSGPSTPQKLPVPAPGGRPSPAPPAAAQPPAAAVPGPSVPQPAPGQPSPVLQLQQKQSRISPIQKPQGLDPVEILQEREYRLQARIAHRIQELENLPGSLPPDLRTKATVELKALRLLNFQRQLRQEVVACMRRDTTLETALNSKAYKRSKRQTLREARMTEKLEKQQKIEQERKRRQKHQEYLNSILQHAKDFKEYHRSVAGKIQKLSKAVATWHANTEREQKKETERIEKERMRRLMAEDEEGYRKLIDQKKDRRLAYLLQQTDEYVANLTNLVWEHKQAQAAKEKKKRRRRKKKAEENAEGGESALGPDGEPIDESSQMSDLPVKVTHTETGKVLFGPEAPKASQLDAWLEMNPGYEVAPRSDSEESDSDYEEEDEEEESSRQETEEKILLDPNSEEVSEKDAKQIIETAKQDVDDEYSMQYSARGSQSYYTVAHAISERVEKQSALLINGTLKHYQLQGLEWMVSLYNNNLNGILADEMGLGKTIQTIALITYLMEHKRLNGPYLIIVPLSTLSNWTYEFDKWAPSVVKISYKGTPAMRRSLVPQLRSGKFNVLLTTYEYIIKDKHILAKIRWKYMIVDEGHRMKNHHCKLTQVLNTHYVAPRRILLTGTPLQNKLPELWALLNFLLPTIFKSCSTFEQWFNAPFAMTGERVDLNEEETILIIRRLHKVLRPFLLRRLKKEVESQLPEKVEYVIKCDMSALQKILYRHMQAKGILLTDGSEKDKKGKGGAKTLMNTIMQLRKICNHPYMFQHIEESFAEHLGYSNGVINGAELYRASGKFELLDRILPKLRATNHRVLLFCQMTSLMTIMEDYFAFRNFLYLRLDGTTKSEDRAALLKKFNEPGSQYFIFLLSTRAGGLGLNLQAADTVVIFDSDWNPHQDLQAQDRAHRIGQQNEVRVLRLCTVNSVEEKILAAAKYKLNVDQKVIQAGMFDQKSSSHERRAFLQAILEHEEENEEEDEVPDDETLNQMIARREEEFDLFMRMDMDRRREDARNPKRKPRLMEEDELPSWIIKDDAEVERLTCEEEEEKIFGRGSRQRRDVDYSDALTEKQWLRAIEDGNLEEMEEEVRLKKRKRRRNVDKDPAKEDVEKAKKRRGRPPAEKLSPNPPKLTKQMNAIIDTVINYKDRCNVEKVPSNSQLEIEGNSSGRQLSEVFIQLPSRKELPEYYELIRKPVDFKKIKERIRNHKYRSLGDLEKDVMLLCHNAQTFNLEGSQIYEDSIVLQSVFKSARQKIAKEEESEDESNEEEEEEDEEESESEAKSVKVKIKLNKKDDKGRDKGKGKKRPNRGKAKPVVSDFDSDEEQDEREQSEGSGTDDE
T2 sequence (P51532 whole entry, the tested form may be a part): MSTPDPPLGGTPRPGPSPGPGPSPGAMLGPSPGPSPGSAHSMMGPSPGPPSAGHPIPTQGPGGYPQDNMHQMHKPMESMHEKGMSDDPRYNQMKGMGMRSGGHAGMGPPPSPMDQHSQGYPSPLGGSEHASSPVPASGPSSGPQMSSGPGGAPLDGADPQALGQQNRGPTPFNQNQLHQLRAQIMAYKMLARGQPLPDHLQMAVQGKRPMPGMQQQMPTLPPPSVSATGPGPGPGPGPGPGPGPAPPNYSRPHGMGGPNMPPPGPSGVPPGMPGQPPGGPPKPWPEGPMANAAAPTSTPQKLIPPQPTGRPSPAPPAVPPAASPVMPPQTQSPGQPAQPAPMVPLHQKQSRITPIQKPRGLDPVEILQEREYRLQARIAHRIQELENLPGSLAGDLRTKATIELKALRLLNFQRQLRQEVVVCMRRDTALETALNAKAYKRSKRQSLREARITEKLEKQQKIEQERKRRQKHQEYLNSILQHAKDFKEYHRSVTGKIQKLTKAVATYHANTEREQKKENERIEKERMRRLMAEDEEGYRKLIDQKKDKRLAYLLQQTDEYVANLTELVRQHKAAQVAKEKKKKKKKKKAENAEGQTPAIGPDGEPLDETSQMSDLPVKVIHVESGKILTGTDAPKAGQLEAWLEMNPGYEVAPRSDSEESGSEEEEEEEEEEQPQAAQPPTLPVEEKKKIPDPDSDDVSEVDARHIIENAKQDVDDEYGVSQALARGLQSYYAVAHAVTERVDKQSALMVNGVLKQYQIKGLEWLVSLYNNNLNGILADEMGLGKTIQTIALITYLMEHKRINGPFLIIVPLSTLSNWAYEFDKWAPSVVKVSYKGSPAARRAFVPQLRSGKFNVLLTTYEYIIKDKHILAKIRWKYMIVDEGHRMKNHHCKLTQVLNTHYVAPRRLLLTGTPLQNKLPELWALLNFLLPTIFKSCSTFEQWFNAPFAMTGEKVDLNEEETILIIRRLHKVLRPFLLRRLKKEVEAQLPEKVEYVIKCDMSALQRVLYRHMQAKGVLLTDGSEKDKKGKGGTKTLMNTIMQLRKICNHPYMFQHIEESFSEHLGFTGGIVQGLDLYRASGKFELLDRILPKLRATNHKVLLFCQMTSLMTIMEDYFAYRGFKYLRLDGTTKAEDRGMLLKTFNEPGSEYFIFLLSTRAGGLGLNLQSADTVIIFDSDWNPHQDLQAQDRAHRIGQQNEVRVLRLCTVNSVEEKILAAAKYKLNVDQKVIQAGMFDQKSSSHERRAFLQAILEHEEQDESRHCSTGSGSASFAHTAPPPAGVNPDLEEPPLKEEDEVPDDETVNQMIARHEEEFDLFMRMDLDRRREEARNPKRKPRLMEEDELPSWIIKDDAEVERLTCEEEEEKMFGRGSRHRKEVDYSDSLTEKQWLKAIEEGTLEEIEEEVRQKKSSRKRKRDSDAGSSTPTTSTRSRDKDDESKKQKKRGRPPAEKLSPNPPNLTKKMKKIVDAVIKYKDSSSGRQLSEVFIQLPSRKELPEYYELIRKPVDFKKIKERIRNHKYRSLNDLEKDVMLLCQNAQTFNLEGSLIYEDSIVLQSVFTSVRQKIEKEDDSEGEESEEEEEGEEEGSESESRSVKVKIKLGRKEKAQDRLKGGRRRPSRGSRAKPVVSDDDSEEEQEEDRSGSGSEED

DC50 (HiBit-BRM fusion protein) [µM] | BRM HiBit Degradation Maximum measured (HiBit-BRM fusion protein) | DC50 [1] [µM] | Dmax [1] [%] | SMILES
> 10 | C (‘C’ = Maximum degradation <50%) | > 10 | < 50 | Cc1ncsc1-c1ccc(CNC(=O)[C@@H]2C[C@@H](O)CN2C(=O)[C@@H](NC(=O)COCCOCCOCCNC(=O)c2ccc(COC[C@H](NC(=O)c3ccn(S(C)(=O)=O)c3)C(=O)Nc3nc(-c4ccccc4)cs3)cc2)C(C)(C)C)cc1 [Compound 189, (2S,4R)-4-hydroxy-1-[(2S)-2-[2-[2-(2-[2-[(4-[[(2S)-2-[(1-methanesulfonylpyrrol-3-yl)formamido]-2-[(4-phenyl-1,3-thiazol-2-yl)carbamoyl]ethoxy]methyl]phenyl)formamido]ethoxy]ethoxy)ethoxy]acetamido]-3,3-dimethylbutanoyl]-N-[[4-(4-methyl-1,3-thiazol-5-yl)phenyl]methyl]pyrrolidine-2-carboxamide]
> 10 | C (‘C’ = Maximum degradation <50%) | > 10 | < 50 | CS(=O)(=O)n1ccc(C(=O)N[C@@H](COCc2ccc(C(=O)N3CCN(CCOc4ccc5c(c4)C(=O)N(C4CCC(=O)NC4=O)C5=O)CC3)cc2)C(=O)Nc2nc(-c3ccccc3)cs2)c1 (stereo partly drawn) [Compound 191, (2S)-3-([4-[4-(2-[[2-(2,6-dioxopiperidin-3-yl)-1,3-dioxoisoindol-5-yl]oxy]ethyl)piperazine-1-carbonyl]phenyl]methoxy)-2-[(1-methanesulfonylpyrrol-3-yl)formamido]-N-(4-phenyl-1,3-thiazol-2-yl)propanamide; formic acid]
> 10 | C (‘C’ = Maximum degradation <50%) | > 10 | < 50 | CS(=O)(=O)n1ccc(C(=O)N[C@@H](COCc2ccc(C(=O)N3CC(Oc4ccc5c(c4)C(=O)N(C4CCC(=O)NC4=O)C5=O)C3)cc2)C(=O)Nc2nc(-c3ccccc3)cs2)c1 (stereo partly drawn) [Compound 194, N-((2S)-3-((4-(3-((2-(2,6-dioxopiperidin-3-yl)-1,3-dioxoisoindolin-5-yl)oxy)azetidine-1-carbonyl)benzyl)oxy)-1-oxo-1-((4-phenylthiazol-2-yl)amino)propan-2-yl)-1-(methylsulfonyl)-1H-pyrrole-3-carboxamide]
> 10 | C (‘C’ = Maximum degradation <50%) | > 10 | < 50 | CS(=O)(=O)n1ccc(C(=O)N[C@@H](COCc2ccc(C(=O)N3CCC(CCCCN4CCN(c5ccc6c(c5)C(=O)N(C5CCC(=O)NC5=O)C6=O)CC4)CC3)cc2)C(=O)Nc2nc(-c3ccccc3)cs2)c1 (stereo partly drawn) [Compound 195, N-((2S)-3-((4-(4-(4-(4-(2-(2,6-dioxopiperidin-3-yl)-1,3-dioxoisoindolin-5-yl)piperazin-1-yl)butyl)piperidine-1-carbonyl)benzyl)oxy)-1-oxo-1-((4-phenylthiazol-2-yl)amino)propan-2-yl)-1-(methylsulfonyl)-1H-pyrrole-3-carboxamide formate]
> 10 | C (‘C’ = Maximum degradation <50%) | > 10 | < 50 | CS(=O)(=O)n1ccc(C(=O)N[C@@H](COCc2ccc(C(=O)NCCOCCOCCNC(=O)COc3cccc4c3C(=O)N(C3CCC(=O)NC3=O)C4=O)cc2)C(=O)Nc2nc(-c3ccccc3)cs2)c1 (stereo partly shown) [Compound 196]

The remaining lines, values behind:

SMILES | DC50 (HiBit-BRM fusion protein) [µM] | BRM HiBit Degradation Maximum measured (HiBit-BRM fusion protein) | DC50 [1] [µM] | Dmax [1] [%]
Cc1ncsc1-c1ccc(CNC(=O)[C@@H]2C[C@@H](O)CN2C(=O)[C@@H](NC(=O)COCCOCCNC(=O)c2ccc(COC[C@H](NC(=O)c3ccn(S(C)(=O)=O)c3)C(=O)Nc3nc(-c4ccccc4)cs3)cc2)C(C)(C)C)cc1 [Compound 188, (2S,4R)-4-hydroxy-1-[(2S)-2-[2-(2-[2-[(4-[[(2S)-2-[(1-methanesulfonylpyrrol-3-yl)formamido]-2-[(4-phenyl-1,3-thiazol-2-yl)carbamoyl]ethoxy]methyl]phenyl)formamido]ethoxy]ethoxy)acetamido]-3,3-dimethylbutanoyl]-N-[[4-(4-methyl-1,3-thiazol-5-yl)phenyl]methyl]pyrrolidine-2-carboxamide] | > 10 | C (‘C’ = Maximum degradation <50%) | 1 to 10 | 50 to 75
CS(=O)(=O)n1ccc(C(=O)N[C@@H](COCc2ccc(C(=O)NCCS(=O)(=O)CCNc3cccc4c3C(=O)N(C3CCC(=O)NC3=O)C4=O)cc2)C(=O)Nc2nc(-c3ccccc3)cs2)c1 (stereo partly drawn) [Compound 190, N-[2-(2-[[2-(2,6-dioxopiperidin-3-yl)-1,3-dioxoisoindol-4-yl]amino]ethanesulfonyl)ethyl]-4-[[(2S)-2-[(1-methanesulfonylpyrrol-3-yl)formamido]-2-[(4-phenyl-1,3-thiazol-2-yl)carbamoyl]ethoxy]methyl]benzamide] | > 10 | C (‘C’ = Maximum degradation <50%) | > 10 | < 50
CS(=O)(=O)n1ccc(C(=O)N[C@@H](COCc2ccc(C(=O)N3CCC(CN4CCN(c5ccc6c(c5)C(=O)N(C5CCC(=O)NC5=O)C6=O)CC4)CC3)cc2)C(=O)Nc2nc(-c3ccccc3)cs2)c1 (stereo partly drawn) [Compound 192, (2S)-3-([4-[4-([4-[2-(2,6-dioxopiperidin-3-yl)-1,3-dioxoisoindol-5-yl]piperazin-1-yl]methyl)piperidine-1-carbonyl]phenyl]methoxy)-2-[(1-methanesulfonylpyrrol-3-yl)formamido]-N-(4-phenyl-1,3-thiazol-2-yl)propanamide; formic acid] | > 10 | C (‘C’ = Maximum degradation <50%) | > 10 | < 50
CS(=O)(=O)n1ccc(C(=O)N[C@@H](COCc2ccc(C(=O)N3CC(CN4CCN(c5ccc6c(c5)C(=O)N(C5CCC(=O)NC5=O)C6=O)CC4)C3)cc2)C(=O)Nc2nc(-c3ccccc3)cs2)c1 (stereo partly drawn) [Compound 193, (2S)-3-([4-[3-([4-[2-(2,6-dioxopiperidin-3-yl)-1,3-dioxoisoindol-5-yl]piperazin-1-yl]methyl)azetidine-1-carbonyl]phenyl]methoxy)-2-[(1-methanesulfonylpyrrol-3-yl)formamido]-N-(4-phenyl-1,3-thiazol-2-yl)propanamide; formic acid] | 0.1 to 1 | B (‘B’ = Maximum degradation ≥50% and ≤75%) | 0.1 to 1 | > 75
CS(=O)(=O)n1ccc(C(=O)N[C@@H](COCc2ccc(C(=O)N3CC(COc4cccc5c4C(=O)N(C4CCC(=O)NC4=O)C5=O)C3)cc2)C(=O)Nc2nc(-c3ccccc3)cs2)c1 (stereo partly drawn) [Compound 197, (2S)-3-([4-[3-([[2-(2,6-dioxopiperidin-3-yl)-1,3-dioxoisoindol-4-yl]oxy]methyl)azetidine-1-carbonyl]phenyl]methoxy)-2-[(1-methanesulfonylpyrrol-3-yl)formamido]-N-(4-phenyl-1,3-thiazol-2-yl)propanamide] | > 10 | C (‘C’ = Maximum degradation <50%) | > 10 | < 50
